The values below are quoted from earlier work in patent US12100485B2, “Machine learning and molecular simulation based methods for enhancing binding and activity prediction” (The Board of Trustees of the Leland Stanford Junior …, priority 2018, dated 2024).

Read-outs that look alike come from different tables or passages of the source.

The data set relates to μOR.

As for `CO[C@@]12CCC(=O)[C@]3(C)Oc4c(O)ccc5c4[C@@]31CCN(C)[C@@H]2C5` [14-methoxymetopon], the Action result is “agonist”.
Turning to `Oc1ccc2c(c1)[C@@]13CCCC[C@H]1[C@@H](C2)N(CCc1ccccc1)CC3` [phenomorphan], the Action result is given as “agonist”.
For the molecule `CC(=O)OC1(c2ccccc2)CCN(CCc2ccccc2)CC1` [pepap], the Action entry is “agonist”.
For `COc1ccsc1CNCC[C@@]1(c2ccccn2)CCOC2(CCCC2)C1` [oliceridine], the Action result is listed as “agonist”.
Regarding `O=C(/C=C/c1ccc(Cl)cc1)N[C@@]12CCC(=O)[C@@H]3Oc4c(O)ccc5c4[C@@]31CCN(CC1CC1)[C@@H]2C5` [clocinnamox], the Action entry is given as “antagonist”.
Regarding `Oc1ccc2c(c1)[C@@]13CCCC[C@@]1(O)[C@@H](C2)N(CC1CC1)CC3` [oxilorphan], the Action result is on record as “Antagonists”.
Consider `CN1CC[C@]23c4c5ccc(O)c4O[C@H]2[C@@H](O)CC[C@H]3[C@H]1C5` [dihydromorphine], for which the Action result is on record as “agonist”.
Consider `CCOC(=O)C1(c2cccc(O)c2)CCN(C)CC1` [hydroxypethidine], for which the Action entry is “agonist”.
Consider `CCC(=O)OC1(c2ccccc2)CCCN(C)CC1C` (centres unmarked) [proheptazine], for which the Action entry is “agonist”.
In the case of `CC[C@H](O)C(C[C@@H](C)N(C)C)(c1ccccc1)c1ccccc1` [betamethadol], the Action result was “agonist”.
Regarding `CNC1(c2ccccc2Cl)CCCCC1=O` (centres unmarked) [ketamine], the Action entry is on record as “agonist”.
As to `C=CCC1CN(C)CCC1(OC(=O)CC)c1ccccc1` (centres unmarked) [allylprodine], the Action result was “agonist”.
In the case of `CC1=CC[C@H]2[C@H]3Cc4ccc(O)c5c4[C@@]2(CCN3C)[C@H]1O5` [methyldesorphine], the Action result is reported as “agonist”.
With endomorphin-1, the Action result is “agonist”.
Regarding `CN1CC[C@]23c4c5ccc(O)c4O[C@@]2(C)C(=O)CC[C@H]3[C@H]1C5` [metopon], the Action result is reported as “agonist”.
On to `CCC(=O)OC1(c2ccccc2)CCN(C)C1C` (centres unmarked) [prodilidine], for which the Action result is reported as “agonist”.
As for `CCC(=O)C(CC(C)N1CCCCC1)(c1ccccc1)c1ccccc1` (centres unmarked) [dipipanone], the Action result is listed as “agonist”.
As to `C=CCN1CC[C@]23c4c5ccc(O)c4O[C@H]2C(=O)CC[C@@]3(O)[C@H]1C5` [naloxone], where the note is “known pharmacology, training dataset”, the Action entry is given as “Antagonists”.
On to `CC[C@H](OC(C)=O)C(C[C@@H](C)N(C)C)(c1ccccc1)c1ccccc1` [betacetylmethadol], for which the Action result was “agonist”.
Take `COc1cccc2c1[C@]13CCN(CC4CC4)[C@H](C2)[C@]1(OC)CCC(=O)C3` [cyprodime]: the Action result was “antagonist”.
Consider `CCC(O)C(CC(C)N(C)C)(c1ccccc1)c1ccccc1` (centres unmarked) [dimepheptanol], for which the Action entry is recorded as “agonist”.
On to `NC(=O)c1cccc([C@H]2C[C@H]3CC[C@@H](C2)N3CCN(CC2CCCCC2)C(=O)[C@@H](O)CO)c1` [axelopran], for which the Action result was “antagonist”.
For `NC(=O)c1ccc2c(c1O)[C@]13CCN(CC4CC4)[C@H](C2)[C@]1(O)CCC(=O)C3` [samidorphan], the Action result is reported as “Antagonists”.
In the case of `CC(C)OC(=O)C1(c2ccccc2)CCN(C)CC1` [properidine], the Action entry is “agonist”.
For the molecule `CC[C@H](OC(C)=O)C(C[C@H](C)N(C)C)(c1ccccc1)c1ccccc1` [levacetylmethadol], the Action result is given as “agonist”.
Consider `CCOC(=O)C1(c2ccccc2)CCN(C)CC1` [pethidine], for which the Action entry is “agonist”.
With `CCC(=O)C(CC(C)N1CCOCC1)(c1ccccc1)c1ccccc1` (centres unmarked) [phenadoxone], the Action result is “agonist”.
Regarding `CN1CC[C@]2(C)C[C@@H](Cc3ccc(O)cc32)C1` [eptazocine], the Action result is given as “antagonist”.
For the molecule `CCOC(=O)C1(c2ccccc2)CCC=CC1N(C)C` (centres unmarked) [tilidine], the Action result was “agonist”.
